# Columns and labels:
# Assay type in all cases: cell-based, human
# [1] = tested on: vascular endothelial cells differentiated from FB-iPSCs; experiment: Morphology of vascular endothelial cells differentiated from FB-iPSCs after TGF-β inhibitor treatment; settings: for therapeutic effect on vasculopathy in patients with Fabry disease: conclusion of Experimental Example 9, patient-derived vascular endothelial cells
# Protocol: Particularly, the FB-iPSCs prepared in Example 1 were cultured in a feeder-free state for 3 days. Thereafter, the medium was exchanged with RPMI-1640 medium containing 1% B27, to which 50 ng/ml of activin A and 20 ng/ml of BPM4 were added as growth factors, and then the cells were cultured for 2 days to differentiate into mesoderm cells. The medium was exchanged with RPMI-1640 medium containing 0.5% B27, to which 50 ng/ml of VEGFA and 50 ng/ml of bFGF were added as growth factors, and then the cells were cultured for 2 days to differentiate into vascular progenitors. CD34 positive cells capable of differentiating into vascular endothelial cells were isolated from the induced vascular progenitors by performing magnetic activated cell sorting (MACS) using CD34 magnetic beads. The isolated CD34 positive cells were further cultured for 2 days in EGM-2 medium (Lonza, USA) containing 100 ng/ml of VEGF-A and 100 ng/ml of bFGF as growth factors to differentiate into vascular endothelial cells. Particularly, using the control group treated with only Fabrazyme on the vascular endothelial cells prepared in Example 2, the experimental group treated with only SB431542 (Cayman Chemical, USA), and the experimental group treated with Fabrazyme and SB431542, the morphology of the cells was confirmed. Particularly, using the control group treated with only Fabrazyme on the vascular endothelial cells prepared in Example 2, the experimental group treated with Fabrazyme and SB431542, and the experimental group treated with Fabrazyme and losartan (Cayman Chemical, USA), the morphology of the cells was confirmed.
# [2] = tested on: TSP1, KDR and eNOS proteins in vascular endothelial cells differentiated from FB-iPSCs; experiment: Western blotting of vasculopathy-related proteins in vascular endothelial cells differentiated from FB-iPSCs
# Protocol: (§1) Particularly, the FB-iPSCs prepared in Example 1 were treated with Fabrazyme, a therapeutic agent for Fabry disease, and starvation media in various combinations. Pro-Prep solution (Intron Biotechnology, Korea) was added to each sample and reacted at 4° C., followed by centrifugation at 1300 rpm for 10 minutes to obtain a supernatant. The obtained supernatant was electrophoresed on acrylamide gel and transferred to a nitrocellulose membrane, followed by blocking with 4% skim milk. Then, anti-LC3 antibody (1:1000, Santacruz, USA) was treated thereto and reacted at 4° C. for 24 hours, followed by washing three times with TBS containing tween-20. The protein expression level was confirmed by the conventional Western blotting. The expression level of each protein was corrected using GAPDH as a control.
# (§2) Particularly, the vascular endothelial cells prepared in Example 2 were treated with Fabrazyme, and Western blotting was performed in the same manner as described in Experimental Example <3-1>. At this time, anti-KDR antibody (1:1000, Cell Signaling Technologies, USA), anti-eNOS antibody (1:1000, Cell Signaling Technologies, USA) and anti-TSP1 antibody (1:1000, Santacruz, USA) were used as antibodies.
# Particularly, using the control group treated with only Fabrazyme on the vascular endothelial cells prepared in Example 2 and the experimental group treated with Fabrazyme and SB431542, Western blotting was performed in the same manner as described in Experimental Example <3-1>. At this time, anti-TSP1 antibody (1:1000, Santacruz, USA), anti-KDR antibody (1:1000, Cell Signaling Technologies, USA) and anti-eNOS antibody (1:1000, Cell Signaling Technologies, USA) were used as antibodies.
# [3] = tested on: vascular endothelial cells differentiated from FB-iPSCs; experiment: Tube formation on matrigel (vasculogenesis) of vascular endothelial cells differentiated from FB-iPSCs; settings: SB431542 only or Fabrazyme and SB431542 vs Fabrazyme only; FIGS. 23a-23e
# Protocol: On the other hand, 70 μl of matrigel (corning) stock solution was put in a 96-well plate and hardened at 37° C., and then 1×10^4 vascular endothelial cells prepared in Example 2 and EGM2 medium were added thereto to confirm the tube formation. Particularly, using the control group treated with only Fabrazyme on the vascular endothelial cells prepared in Example 2, the experimental group treated with only SB431542, and the experimental group treated with Fabrazyme and SB431542, The tube formation was confirmed in the same manner as described in Experimental Example <4-2>.
# [4] = tested on: KDR, eNOS and TSP1 genes in vascular endothelial cells differentiated from normal iPSCs; experiment: RT-PCR of vasculopathy-related genes after LysoGb3 treatment
# Protocol: Particularly, the vascular endothelial cells differentiated from normal iPSCs were treated with LysoGb3 protein for 1, 3 or 5 days, and RNA was extracted from the cells using easy-BLUE (Intron). Then, RT-PCR was performed in the conventional manner to confirm the RNA expression levels of KDR, eNOS and TSP1 (Thrombospondin 1) genes related to vasculopathy. As a result, as shown in FIGS. 18a to 18c, the RNA expression levels of KDR, eNOS and TSP1 genes were increased 1 day after the treatment of LysoGb3 protein.
# [5] = tested on: vascular endothelial cells differentiated from normal iPSCs; experiment: Morphology of vascular endothelial cells differentiated from normal iPSCs after LysoGb3 treatment; settings: treated for 9 days; FIG. 17
# Protocol: Particularly, the vascular endothelial cells differentiated from normal iPSCs were treated with LysoGb3 protein (MATREYA LLC, USA) for 9 days, and then the morphology of the cells was confirmed.
# [6] = tested on: TSP1 protein in vascular endothelial cells differentiated from normal iPSCs; experiment: Immunostaining of TSP1 protein expression location after LysoGb3 treatment; settings: FIG. 20
# [7] = tested on: TSP1, KDR, eNOS and phospho-AKT in vascular endothelial cells differentiated from normal iPSCs; experiment: Western blotting of vasculopathy-related proteins after LysoGb3 treatment; settings: treated for 3, 6, or 9 days; Western blot, FIG. 19
# Protocol: as §1
# The changes in the expression levels of vasculopathy-related proteins by Gb3 protein were confirmed using Western blotting. Particularly, the vascular endothelial cells differentiated from normal iPSCs were treated with LysoGb3 protein for 3, 6, or 9 days, and Western blotting was performed in the same manner as described in Experimental Example <3-1>. At this time, anti-TSP1 antibody (1:1000, Santacruz, USA), anti-KDR antibody (1:1000, Cell Signaling Technologies, USA), anti-eNOS antibody (1:1000, Cell Signaling Technologies, USA), anti-AKT antibody (1:1000, Cell Signaling Technologies, USA), and anti-phospho-AKT antibody (1:1000, Cell Signaling Technologies, USA) were used as antibodies.
# [8] = tested on: TSP1 protein in vascular endothelial cells differentiated from normal iPSCs; experiment: Western blotting after activin A treatment of vascular endothelial cells differentiated from normal iPSCs; settings: activin A treatment of normal iPSC-derived vascular endothelial cells; FIG. 15
# Protocol: as §1
# Particularly, the vascular endothelial cells differentiated from normal iPSCs were treated with activin A to activate TGF-β, and Western blotting was performed in the same manner as described in Experimental Example <3-1>. […]
# [9] = tested on: SMAD2 protein phosphorylation in vascular endothelial cells differentiated from FB-iPSCs; experiment: Western blotting of SMAD2 phosphorylation (TGF-β activation) in vascular endothelial cells differentiated from FB-iPSCs; settings: Fabrazyme treatment; vs normal control group; FIG. 14
# Protocol: as §1
# as §2, with “anti-SMAD2” for “anti-KDR antibody (1:1000, Cell Signaling Technologies, USA), anti-eNOS”, “anti-phospho-SMAD2” for “anti-TSP1”, “Cell Signaling Technologies,” for “Santacruz,”
# [10] = tested on: LC3, Beclin 1 and ubiquitin proteins in vascular endothelial cells of patients with Fabry disease; experiment: Western blotting of LC3, Beclin 1 and ubiquitin in vascular endothelial cells of patients with Fabry disease
# Protocol: as §1
# Particularly, vascular endothelial cells were isolated from the dermal tissue obtained from the patients with Fabry disease of Example 1, to which Fabrazyme was treated. Then, the expression levels of LC3, Beclin 1 and ubiquitin proteins were confirmed by performing Western blotting in the same manner as described in Experimental Example <3-1>. At this time, anti-LC3 antibody (1:1000, Santacruz, USA), anti-Beclin 1 antibody (1:500, Santacruz, USA), and anti-ubiquitin antibody (1:1000, Santacruz, USA) were used as antibodies.
# [11] = tested on: LC3 protein in FB-iPSCs; experiment: Western blotting of LC3 protein in FB-iPSCs; settings: Fabrazyme and starvation media in various combinations, vs normal cells, FIG. 4
# Protocol: as §1
# [12] = given with Fabrazyme vs Fabrazyme only, Fab #1, Fab #2 (FIGS. 24a, 24b)
# [13] = Fabrazyme and SB431542 vs Fabrazyme only, Western blot, FIG. 22
# [14] = vascular endothelial cells of Fabry patients, Fabrazyme treatment, vs normal cells, FIG. 5
molecule,measurement,setting,value
NC(=O)c1ccc(-c2nc(-c3ccc4c(c3)OCO4)c(-c3ccccn3)[nH]2)cc1 [SB431542],abnormal morphology of the vascular endothelial cells differentiated from FB-iPSCs,"[1]; SB431542 only or Fabrazyme and SB431542 vs Fabrazyme only, Fab #1-#4 (FIGS. 21a-21e)",restored to normal
same,therapeutic effect on vasculopathy in patients with Fabry disease,[1],showed a therapeutic effect
same,abnormal morphology of the vascular endothelial cells differentiated from FB-iPSCs,[1]; [12],restored to normal
same,expression level of KDR protein,[2]; [13],increased
same,expression level of TSP1 protein,[2]; [13],decreased
same,expression level of eNOS protein,[2]; [13],increased
same,tube formation on matrigel,[3],formed a tube shape
CCCCCCCCCCCCC/C=C/[C@@H](O)[C@@H](N)CO[C@@H]1O[C@H](CO)[C@@H](O[C@@H]2O[C@H](CO)[C@H](O[C@H]3O[C@H](CO)[C@H](O)[C@H](O)[C@H]3O)[C@H](O)[C@H]2O)[C@H](O)[C@H]1O [LysoGb3 protein],RNA expression level of KDR gene,[4]; 1 day after the treatment,increased
same,RNA expression level of TSP1 gene,[4]; 1 day after the treatment,increased
same,RNA expression level of eNOS gene,[4]; 1 day after the treatment,increased
same,RNA expression level of KDR gene,[4]; after 3 and 5 days,lower than those of the normal control cells
same,RNA expression level of eNOS gene,[4]; after 3 and 5 days,lower than those of the normal control cells
same,morphology of the normal vascular endothelial cells,[5],changed to a widening form
same,expression location (distribution) of TSP1 protein,[6],distributed throughout the cells
same,expression level of KDR protein,[7],decreased
same,expression level of TSP1 protein,[7],increased
same,expression level of eNOS protein,[7],decreased
same,phosphorylation of AKT protein,[7],decreased
CCCCc1nc(Cl)c(CO)n1Cc1ccc(-c2ccccc2-c2nn[nH]n2)cc1 [losartan],therapeutic effect on vasculopathy in patients with Fabry disease,[1],could not be confirmed
same,abnormal morphology of the vascular endothelial cells differentiated from FB-iPSCs,[1]; [12],had no effect
"activin A: growth factor used to activate TGF-β (protein, UniProt P08476 311-426, looked up, Inhibin beta A chain) Inhibin beta A chain: GLECDGKVNICCKKQFFVSFKDIGWNDWIIAPSGYHANYCEGECPSHIAGTSGSSLSFHSTVINHYRMRGHSPFANLKSCCVPTKLRPMSMLYYDDGQNIIKKDIQNMIVEECGCS",expression of TSP1 protein,[8],increased
"Fabrazyme: recombinant alpha-galactosidase enzyme, a therapeutic agent for Fabry disease (protein, UniProt P06280 32-429, looked up) Alpha-galactosidase A: LDNGLARTPTMGWLHWERFMCNLDCQEEPDSCISEKLFMEMAELMVSEGWKDAGYEYLCIDDCWMAPQRDSEGRLQADPQRFPHGIRQLANYVHSKGLKLGIYADVGNKTCAGFPGSFGYYDIDAQTFADWGVDLLKFDGCYCDSLENLADGYKHMSLALNRTGRSIVYSCEWPLYMWPFQKPNYTEIRQYCNHWRNFADIDDSWKSIKSILDWTSFNQERIVDVAGPGGWNDPDMLVIGNFGLSWNQQVTQMALWAIMAAPLFMSNDLRHISPQAKALLQDKDVIAINQDPLGKQGYQLRQGDNFEVWERPLSGLAWAVAMINRQEIGGPRSYTIAVASLGKGVACNPACFITQLLPVKRKLGFYEWTSRLRSHINPTGTVLLQLENTMQMSLKDLL",phosphorylation level of SMAD2 protein,[9],increased in the vascular endothelial cells derived from patients with Fabry disease compared to the normal control group regardless of the Fabrazyme treatment
same,characteristics of the lysosomal storage disease,"[10]; after the treatment of Fabrazyme, conclusion of Experimental Example 3",not recovered
same,expression level of Beclin 1 protein,[10]; [14],higher in vascular endothelial cells of patients with Fabry disease than in normal cells regardless of the Fabrazyme treatment
same,expression level of LC3 protein,[10]; [14],higher in vascular endothelial cells of patients with Fabry disease than in normal cells regardless of the Fabrazyme treatment
same,expression level of ubiquitin protein,[10]; [14],higher in vascular endothelial cells of patients with Fabry disease than in normal cells regardless of the Fabrazyme treatment
same,increased expression level of TSP1 protein by Fabry disease,"[2]; Fabrazyme treatment, vs normal control group, FIG. 13",not inhibited
same,expression level of LC3 protein,[11],higher in FB-iPSCs than in normal cells regardless of the Fabrazyme treatment
